Test results reported in paper PMC2854129, “Spadin, a Sortilin-Derived Peptide, Targeting Rodent TREK-1 Channels: A New Concept in the Antidepressant Drug Design” (PLoS Biology, 2010).

Assays:
mice [1] = assay: Staircase test; type: in vivo, mouse; conditions: spadin i.p. 10^−5 M or diazepam i.p. 0.5 mg/kg, 30 min before test, vs saline; n = 10
Description: Stair case test. The apparatus comprised an enclosed staircase consisted of five identical steps (2.5 cm in height X 11 cm in width X 7.5 cm in length), each made of black plastic. The height of the walls was constant (12.5 cm above the stairs) along the entire length of the staircase. Each mouse was placed individually on the floor of the staircase with its back to the staircase. A step was considered climbed only if the mouse placed all four paws on it. Rearing was recorded when the mouse rose on its hind legs either on the step or against the wall. The number of steps ascended and the number of rearings made in a 3-min period were recorded. Results were expressed as ratio of rearing/step numbers.

mice [2] = assay: Elevated plus-maze; type: in vivo, mouse; conditions: spadin i.p. 10^−5 M or diazepam i.p. 0.5 mg/kg, 30 min before test, vs saline; n = 10
Source text: Elevated plus-maze. The apparatus consisted of two open and two enclosed arms of the same size (45x5 cm) with walls 15 cm high. The arms, constructed of black acrylic, radiate from a common central platform (5x5 cm) to form a plus sign. Open arms were arranged opposite to one another, as were closed arms. The maze was elevated to a height of 45 cm above floor level. Each mouse was placed in the central platform facing one of the open arms. The number of entries into the open and closed arms and the time spent on the open and closed arms were recorded during a 5 min test period. Time spent in the unprotected open arms as well as the number of entries in open arms in relation to the total of arm entries are used as experimental indices of anxiety.

mice [3] = assay: Light/dark exploration test; type: in vivo, mouse; conditions: spadin i.p. 10^−5 M or diazepam i.p. 0.5 mg/kg, 30 min before test, vs saline; n = 10
Description: Light/dark exploration. The apparatus consisted of a cage (25X40X20 cm) divided into two compartments by a black partition containing a small opening that allows mouse to move from one compartment to the other. One compartment, comprising […] of the surface area, was made of white plastic and was brightly illuminated. The adjoining smaller compartment was black and dark. Mice were placed in the white compartment and allowed to move freely between the two chambers for 5 minutes. The number of transitions between the two compartments, time spent in the white chamber, and latency to the first transition were recorded. Mice tend to avoid the white compartment. Thus the measures of exploration in this area (time and entrances) were used as experimental indices of anxiety.

C13NJ cells = assay: C13NJ wound-healing (cell migration) assay; type: cell-based; conditions: 10 nM NT in serum free medium; without spadin, or (spadin line) with 1 µM spadin; unstimulated 4%±1%
Source text: A cell-free zone was created within a semi-confluent monolayer of microglial culture by scratching cells off with a pipette tip. We analyzed by time-lapse microscopy how cells repopulated the cell-free zone, as already described. Supplementary file pbio.1000355.s001.tif: Figure S1 […] wound-healing assay. A cell-free zone was created within a semi-confluent monolayer with a pipette tip. We analyzed by time-lapse microscopy how cells repopulated the cell-free zone. The 100% of migrating cells was calculated by stimulation of cell migration with 10% of Fetal Calf Serum (FCS). (0.13 MB TIF) Click here for additional data file.

TREK-1 [4] = biological target: T1, TREK-1 (Mus musculus, UniProt P97438); assay: Competition binding, 125I-spadin, TREK-1 transfected COS-7 cell homogenates; parameters: expressed in transfected cells; host or cells: COS-7 cells, DEAE-dextran transfection; conditions: competition, 10^−10 to 10^−5M
T1 sequence (P97438 1-426): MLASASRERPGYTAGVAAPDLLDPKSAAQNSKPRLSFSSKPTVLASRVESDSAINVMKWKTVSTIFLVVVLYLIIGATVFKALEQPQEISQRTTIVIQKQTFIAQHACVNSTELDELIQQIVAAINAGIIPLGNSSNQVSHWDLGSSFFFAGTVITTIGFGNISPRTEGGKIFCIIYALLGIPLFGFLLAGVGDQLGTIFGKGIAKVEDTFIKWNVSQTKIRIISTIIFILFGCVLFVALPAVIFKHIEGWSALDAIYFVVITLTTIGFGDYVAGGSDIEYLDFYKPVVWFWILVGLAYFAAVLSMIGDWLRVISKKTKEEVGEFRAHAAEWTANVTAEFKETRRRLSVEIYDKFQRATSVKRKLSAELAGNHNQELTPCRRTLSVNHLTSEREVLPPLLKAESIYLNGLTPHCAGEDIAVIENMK
Description: For competition experiments, homogenates from TREK-1 transfected COS-7 or C13NJ cells were incubated with 0.2 nM ^125I-spadin or ^125I-NT (200,000 cpm in 250 µl) iodinated and purified as previously described. Incubations were performed in 50 mM Tris-HCl, pH 7.4 containing 0.1% BSA in the presence of increasing concentrations of non-radioactive spadin or NT (10^−10 to 10^−5M). Incubations were terminated by addition of 2 ml of ice-cold binding buffer followed by filtration through cellulose acetate filters (Sartorius, Göttingen, Germany) and washing twice with 2 ml of ice-cold buffer. Radioactivity on filters was counted with a gamma-counter.

[5] = system: BrdU-positive cells in mouse hippocampus; assay: Hippocampal neurogenesis (BrdU labeling); type: in vivo
Description: Twenty-four hours after the injection of BrdU (120 mg per kg of body weight in a 300 µl bolus), mice were euthanized and transcardially perfused with 4% cold paraformaldehyde. Serial sections of the brains were cut (40 µm) throughout the entire hippocampus on a vibratome (Leica). Every sixth section throughout the hippocampus was processed for BrdU or DCX immunohistochemistry, as previously described. For each immunodetection, slides were first incubated overnight at 4°C with a mouse monoclonal anti-BrdU antibody (1∶200; Becton-Dickinson) or a goat anti-DCX (1∶400; Santa Cruz Laboratories). For chromogenic immunodetection, sections were then incubated for 1 h in biotin-conjugated species-specific secondary antibodies (1∶100; Vector Laboratories) followed by a peroxidase-avidin complex solution according to the manufacturer's protocol. The peroxidase activity of immune complexes was visualized with DAB staining using the VectaStain ABC kit (Vector Laboratories). […] All BrdU-labeled cells in the granular cell layer and SGZ were counted in each section (n = 10 and 5 mice per group) at 400× and 1,000× magnification under a light microscope (Olympus) by an experimenter blinded to the study code. […]

mice [6] = assay: Novelty Suppressed Feeding test (NSF), mice; type: in vivo, mouse; conditions: 4 d; spadin i.v. 10^−6 M, fluoxetine i.p. 3 mg/kg; vs saline
Description: Novelty–suppressed feeding test (NSF). NSF paradigm is a conflict test that elicits competing motivations: the drive to eat and the fear of venturing into the center of a bright arena. Latency to begin eating is used as an index of anxiety- and depression- like behavior. After 4 day treatment (saline or spadin, i.v.) and 24 hours food-deprivation, mice were presented with a food pellet placed in the center of a brightly plastic box (50 x 50 x 20 cm). Latency to begin eating was measured as previously described.

[7] = system: corticosterone (HPA axis); assay: Stress-induced serum corticosterone levels; type: in vivo, mouse; conditions: fluoxetine i.p. 3 mg/kg, 30 min after 10 min tube restraint, vs saline; n = 10
Description: Mice were individually housed for at least 12 h before blood sample collection. Serum samples, collected in the morning, were obtained by retroorbital puncture before and 30 min after the end of a 10 min tube restraint. Levels of corticosterone were measured by radioimmunoassay using a commercially available kit (MP Biomedicals).

TREK-1 channel = assay: Whole-cell patch-clamp, hippocampal CA3 pyramidal neurons in brain slices, wild-type mice; type: cell-based, mouse; conditions: no aa; spadin n = 8, fluoxetine n = 5; mean ± SEM; unpublished data
mice [8] = assay: Tail Suspension Test (TST), mice; type: in vivo, mouse; conditions: 4-d fluoxetine 3 mg/kg, vs saline, p>0.05
Description: Tail suspension test (TST). Mice were suspended by the tail. […] The immobility time was recorded during a 6 min test session.

TREK-1 [9] = assay: Whole-cell patch-clamp, cultured hippocampal pyramidal neurons; type: cell-based, mouse
Description: Cortical neurons were prepared from 14 old mouse embryos, whereas hippocampal neurons were prepared from newborn mice. Briefly, dissected brain areas were dissociated and neurons were plated on polylysine-treated 35 or 60 mm dishes and maintained in culture in Neurobasal medium supplemented with B27, Glutamax, and antibiotics for 2 to 3 wk before to be used for electrophysiological or biochemical experiments.
Supplementary file pbio.1000355.s004.tif: Figure S4 Effects of spadin on cultured pyramidal neurons from hippocampus. (A) Cultured pyramidal neuron from hippocampus, with on top, the patch-clamp pipette. Neurons were chosen according to their morphology. (B) Current recorded in response to ramps of potential obtained in the various conditions indicated (aa, arachidonic acid: 10 µM; Spadin: 1 µM; Fluoxetine: 20 µM). Neurons were recorded in the whole-cell configuration of the patch-clamp technique. In voltage-clamp, ramps of potential from −90 mV to 70 mV were applied every 10 s. The % variation of the current amplitude was always measured at −50 mV. The currents were recorded in response to such ramps in control conditions and in the presence of a cocktail of potassium blockers suitable to isolate the TREK currents (10 mM tetraethyl ammonium (TEA), 3 mM 4-aminopyridine (4-AP), 50 nM charybdotoxin, 10 µM glibenclamide, 100 nM apamin). […] The blocks were reversible. (C) Time course of spadin and fluoxetine effects. Applications are indicated by the horizontal bars. (2.03 MB TIF) Click here for additional data file.

mice [10] = conditions: mouse, in vivo, ip
Description: Supplementary file pbio.1000355.s006.tif: Figure S6 Mouse locomotion activity. To determine whether spadin induced a change in locomotor activity, mice (n = 8 per group) were injected with the saline solution or spadin (10^−5M in 100 µl bolus, i.p.) 30 min before starting the test session. Locomotor activity was monitored individually for 24 h using an infrared photobeam activity monitoring system (Imetronic, Pessac, France), which measured consecutive horizontal beam breaks. Testing was in transparent plastic cages (43×2 0×20 cm^3) with fresh bedding in a grid of 8 cm horizontal infrared beams. Locomotor activity was defined as breaking of consecutive photobeams. Mice were given 1 h habituation session before being treated with spadin or saline. Movements were recorded and totalized for each 5 min period during the first hour and then by 10 min time sections for the next 23 h. Six periods were pooled to obtain data for 1 h of time. Different movements were monitored: the coming-and-going between the back and the front of the cage, climbing, and other movements in the back or the front of the cage. Data are the mean value of 8 animals per condition, bars represent SEM. Mice were kept under standard laboratory conditions: 12∶12 light-dark cycle with free access to food and water during the experiment. […] (0.53 MB TIF) Click here for additional data file.

mice [11] = assay: Forced Swimming Test (FST), mice; type: in vivo, mouse
Description: Porsolt forced swim test (FST). Mice (Janvier, France) were placed individually in cylinders (height: 30 cm, diameter: 15 cm) filled with 12 cm deep water (temperature: 22 ±1°C) for 6 min. The total period of immobility was recorded during the last 4 min.

Compound: CN1C(=O)CN=C(c2ccccc2)c2cc(Cl)ccc21 [diazepam]
- rearing/step numbers ratio (mice [1]): decrease of the rearing/step numbers ratio
- time spent in the open arms (mice [2]): significantly reduced the time spent into the aversive open arms
- light/dark transitions (mice [3]): significantly induced an increase in the number of light/dark transitions

Compound: neurotensin [NT]
- number of cells that migrated, % of migrating cells in presence of 10% FCS (C13NJ cells): 35.1%±2.3%
- displacement of 125I-spadin binding (TREK-1 [4]): unable to displace the binding of ^125I-spadin

Compound: CNCCC(Oc1ccc(C(F)(F)F)cc1)c1ccccc1 (stereo not shown) [fluoxetine]
- number of BrdU-positive cells ([5]; 4-d fluoxetine): no effect on neurogenesis
- number of BrdU-positive cells ([5]; 15 d treatment, spadin 10^−5 M or fluoxetine, n = 5): significant increase in the number of BrdU-positive cells
- latency to feed (mice [6]): no effect
- reduction of stress-induced increase in corticosterone levels [7]: 59.1%
- inhibition of current recorded in presence of potassium blockers, peptide/drug alone (TREK-1 channel): 13.0%±3.8%
- effect of subchronic treatment (mice [8]): no effect
- block of arachidonic acid-evoked current (TREK-1 [9]; 20 µM fluoxetine, 10 µM aa, at −50 mV): fully blocked
- reversibility of block (TREK-1 [9]; spadin 1 µM and fluoxetine 20 µM): reversible
- locomotor activity (mice [10]): Neither spadin nor fluoxetine had any effect on mouse locomotion
- effect of subchronic treatment (mice [11]; 4-d fluoxetine 3 mg/kg, FST, vs saline, p>0.05): no effect
- reduction of time of immobility, chronic treatment (mice [11]; 15 d, i.v. once a day, spadin 10^−6 M, fluoxetine 1 mg/kg, vs saline p<0.001, n = 8): around 30%
